Target: T1, human OX2R (Homo sapiens, UniProt O43614)
T1 construct: expressed in transfected cells; host or cells: Chinese hamster ovary (CHO) cells, kept under G418 selection
T1 sequence (O43614 1-444): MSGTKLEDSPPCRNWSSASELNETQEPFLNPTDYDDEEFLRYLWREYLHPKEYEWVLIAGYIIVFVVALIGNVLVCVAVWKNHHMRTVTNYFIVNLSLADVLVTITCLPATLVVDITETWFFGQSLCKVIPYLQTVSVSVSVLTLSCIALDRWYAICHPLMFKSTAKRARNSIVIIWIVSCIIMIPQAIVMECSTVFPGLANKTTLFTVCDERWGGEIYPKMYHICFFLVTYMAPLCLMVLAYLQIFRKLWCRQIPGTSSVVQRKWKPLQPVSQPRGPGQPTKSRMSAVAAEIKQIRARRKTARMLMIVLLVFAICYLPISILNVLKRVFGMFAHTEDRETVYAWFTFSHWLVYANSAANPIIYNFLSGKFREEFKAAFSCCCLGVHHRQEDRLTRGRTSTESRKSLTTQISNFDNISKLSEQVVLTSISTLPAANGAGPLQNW
Assay: IPOne (IP-1 accumulation) assay of orexin receptor agonist activity in CHO cells expressing human OX2R
Type: cell-based
Details: for IC50: CHO cells expressing human OX2R, IP-One assay, 2 hours incubation, four parameter logistic fit, read-out: hOX2R_IP IC50; for Emax: CHO, percent activity at maximum tested concentration, relative to reference compound at 1 uM (100% activity) for human OX2R
Source text: The utility of the compounds in accordance with the present invention as orexin receptor OX1R and/or OX2R agonists may be readily determined without undue experimentation by methodology well known in the art. Both the OX1R and/or OX2R G-coupled protein receptors (GPCRs) couple through the Gαq signaling pathway, which ultimately promotes calcium mobilization via inositol triphosphate (IP3) production. […] The utility of the compounds in accordance with the present invention as orexin receptor OX1R and/or OX2R agonists may be determined utilizing this assay.
In a typical experiment, the OX1 and OX2 receptor agonist activity is determined in accordance with the following general experimental method. Chinese hamster ovary (CHO) cells expressing human OX1R and/or the human OX2R were grown in Iscove's modified DMEM containing glutaMAX™, 1% G418, 100 U/mL penicillin, 100 μg/mL streptomycin and 10% heat-inactivated qualified fetal bovine serum (FBS). […] During this incubation, IP-one detection reagents were prepared (38:1:1 lysis buffer:D2:AB-cryptate reagents).
For each compound, data were fit to a four parameter logistic fit (ActivityBase software) and the EC50 was reported as the inflection point of the resulting curve. Percent effect for each test compound was determined as the percentage of sample raw value/mean max effect, where the mean max effect was derived from the mean raw value of 32 control wells per assay plate (using Orexin A (cat #003-30) at 1 μM for human OX1R and a reference compound at 1 uM with 100% activity previously established by comparison to Orexin A for human OX2R). The intrinsic orexin receptor agonist activity of a compound which may be used in the present invention may be determined by these assays.

| SMILES | IC50 [nM] | Emax [%] |
| --- | --- | --- |
| CC(C)C(=O)N1[C@H](C)CN(S(=O)(=O)c2ccccc2)C[C@@H]1C(=O)NCc1ccc2ccccc2c1 (relative stereo) [Example 19-1, cis-1-isobutyryl-6-methyl-N-(naphthalen-2-ylmethyl)-4-(phenylsulfonyl)piperazine-2-carboxamide] | 245 | 100 |
| CC(C)C(=O)N1[C@H](C)CN(S(=O)(=O)c2ccccc2)C[C@@H]1C(=O)NCc1ccc(-c2ccccc2)cc1 (relative stereo) [Example 19-3, cis-N-([1,1′-biphenyl]-4-ylmethyl)-1-isobutyryl-6-methyl-4-(phenylsulfonyl)piperazine-2-carboxamide] | 68.9 | 87.1 |
| CC(C)C(=O)N1[C@H](C)CN(S(=O)(=O)c2ccccc2)C[C@@H]1C(=O)NCc1ccc(OC(C)(F)F)cc1 (relative stereo) [Example 19-4, cis-N-(4-(1,1-difluoroethoxy)benzyl)-1-isobutyryl-6-methyl-4-(phenylsulfonyl)piperazine-2-carboxamide] | 70.2 | 101 |
| CC(C)C(=O)N1[C@H](C)CN(S(=O)(=O)c2ccccc2)C[C@@H]1C(=O)NCc1ccc(-c2ncccn2)cc1 (relative stereo) [Example 19-5, cis-1-isobutyryl-6-methyl-4-(phenylsulfonyl)-N-(4-(pyrimidin-2-yl)benzyl)piperazine-2-carboxamide] | 79.5 | 101 |
| CC(C)C(=O)N1[C@H](C)CN(S(=O)(=O)c2ccccc2)C[C@@H]1C(=O)NCc1ccc(-c2nccs2)cc1 (relative stereo) [Example 19-6, cis-1-isobutyryl-6-methyl-4-(phenylsulfonyl)-N-(4-(thiazol-2-yl)benzyl)piperazine-2-carboxamide] | 81.3 | 98.7 |
| CC(C)C(=O)N1[C@H](C)CN(S(=O)(=O)c2ccccc2)C[C@@H]1C(=O)NCc1ccc(-n2nccn2)cc1 (relative stereo) [Example 19-7, cis-N-(4-(2H-1,2,3-triazol-2-yl)benzyl)-1-isobutyryl-6-methyl-4-(phenylsulfonyl)piperazine-2-carboxamide] | 82.2 | 101 |
| CC(C)C(=O)N1[C@H](C)CN(S(=O)(=O)c2ccccc2)C[C@@H]1C(=O)NCc1ccc(-c2ncco2)cc1 (relative stereo) [Example 19-8, cis-1-isobutyryl-6-methyl-N-(4-(oxazol-2-yl)benzyl)-4-(phenylsulfonyl)piperazine-2-carboxamide] | 146 | 99.5 |
| CC(C)C(=O)N1[C@H](C)CN(S(=O)(=O)c2ccccc2)C[C@@H]1C(=O)NCc1ccc(-n2cccn2)cc1 (relative stereo) [Example 19-9, cis-N-(4-(1H-pyrazol-1-yl)benzyl)-1-isobutyryl-6-methyl-4-(phenylsulfonyl)piperazine-2-carboxamide] | 409 | 99.2 |
| CCCc1ccc(CNC(=O)[C@H]2CN(S(=O)(=O)c3ccccc3)C[C@@H](C)N2C(=O)C(C)C)cc1 (relative stereo) [Example 19-10, cis-1-isobutyryl-6-methyl-4-(phenylsulfonyl)-N-(4-propylbenzyl)piperazine-2-carboxamide] | 158 | 93.8 |
| CCOc1ccc(CNC(=O)[C@H]2CN(S(=O)(=O)c3ccccc3)C[C@@H](C)N2C(=O)C(C)C)cc1 (relative stereo) [Example 19-11, cis-N-(4-ethoxybenzyl)-1-isobutyryl-6-methyl-4-(phenylsulfonyl)piperazine-2-carboxamide] | 264 | 93.1 |
| CC(C)C(=O)N1[C@H](C)CN(S(=O)(=O)c2ccccc2)C[C@@H]1C(=O)NCc1ccc(-c2ccccc2F)cc1 (relative stereo) [Example 21, cis-N-((2′-fluoro-[1,1′-biphenyl]-4-yl)methyl)-1-isobutyryl-6-methyl-4-(phenylsulfonyl)piperazine-2-carboxamide] | 92.2 | 90.7 |
| CC(C)C(=O)N1[C@H](C)CN(S(=O)(=O)c2ccccc2)C[C@@H]1C(=O)NCc1ccc(-c2ccco2)cn1 (relative stereo) [Example 23, cis-N-((5-(furan-2-yl)pyridin-2-yl)methyl)-1-isobutyryl-6-methyl-4-(phenylsulfonyl)piperazine-2-carboxamide] | 108 | 98.9 |
| CC(C)C(=O)N1[C@H](C)CN(S(=O)(=O)c2ccccc2)C[C@@H]1C(=O)NCc1ccc(-c2ccco2)c(F)c1 (relative stereo) [Example 26, cis-N-(3-fluoro-4-(furan-2-yl)benzyl)-1-isobutyryl-6-methyl-4-(phenylsulfonyl)piperazine-2-carboxamide] | 11.2 | 100 |
| Cc1cc(-c2ccco2)ccc1CNC(=O)[C@H]1CN(S(=O)(=O)c2ccccc2)C[C@@H](C)N1C(=O)C(C)C (relative stereo) [Example 29, cis-N-(4-(furan-2-yl)-2-methylbenzyl)-1-isobutyryl-6-methyl-4-(phenylsulfonyl)piperazine-2-carboxamide] | 13.1 | 99.6 |
| CC(C)C(=O)N1[C@H](C)CN(S(=O)(=O)c2ccccc2)C[C@@H]1C(=O)NCc1ccc(-c2ccco2)cc1F (relative stereo) [Example 32, cis-N-(2-fluoro-4-(furan-2-yl)benzyl)-1-isobutyryl-6-methyl-4-(phenylsulfonyl)piperazine-2-carboxamide] | 58.5 | 99.9 |
| CC(C)C(=O)N1[C@H](C)CN(S(=O)(=O)c2ccccc2)C[C@@H]1C(=O)NCc1ccc(-c2ccccn2)cc1 (relative stereo) [Example 42-1, cis-1-isobutyryl-6-methyl-4-(phenylsulfonyl)-N-(4-(pyridin-2-yl)benzyl)piperazine-2-carboxamide] | 121 | 100 |
| COc1cc(CNC(=O)[C@H]2CN(S(=O)(=O)c3ccccc3)C[C@@H](C)N2C(=O)C(C)C)ccc1-c1ccco1 (relative stereo) [Example 47-1, cis-N-(4-(furan-2-yl)-3-methoxybenzyl)-1-isobutyryl-6-methyl-4-(phenylsulfonyl)piperazine-2-carboxamide] | 19200 | 38.4 |
| CC(C)C(=O)N1[C@H](C)CN(S(=O)(=O)c2ccccc2)C[C@@H]1C(=O)NCc1ccc(-c2ccco2)c(C#N)c1 (relative stereo) [Example 47-2, cis-N-(3-cyano-4-(furan-2-yl)benzyl)-1-isobutyryl-6-methyl-4-(phenylsulfonyl)piperazine-2-carboxamide] | 144 | 98.3 |
| CC(C)C(=O)N1[C@H](C)CN(S(=O)(=O)c2ccccc2)C[C@@H]1C(=O)NCc1cc(F)c(-c2ccco2)c(F)c1 (relative stereo) [Example 47-3, cis-N-(3,5-difluoro-4-(furan-2-yl)benzyl)-1-isobutyryl-6-methyl-4-(phenylsulfonyl)piperazine-2-carboxamide] | 29.5 | 99.7 |
| COc1cc(-c2ccco2)ccc1CNC(=O)[C@H]1CN(S(=O)(=O)c2ccccc2)C[C@@H](C)N1C(=O)C(C)C (relative stereo) [Example 47-4, cis-N-(4-(furan-2-yl)-2-methoxybenzyl)-1-isobutyryl-6-methyl-4-(phenylsulfonyl)piperazine-2-carboxamide] | 27.9 | 94.2 |
